From patent US20110014137A1, “METHODS FOR PROTECTING THE SKIN FROM RADIATION INSULTS” (priority 2007, published 2011)
Entries after “also recorded” stand apart in the source; their conditions may differ. Where two headings read alike, the source gives them in different places.

Tests used:
[1] = system: glutathione; settings: 24 h exposure, serial dilutions
Experimental: (§1) Cells (20,000 per well) were plated on 96-well plates and exposed to a series of concentrations of sulforaphane. GSH and NQO1 levels were measured in cell lysates after 24 h and 48 h, respectively. Each data point represents the average of the measurements from 8 different wells.
(§2) HaCaT human keratinocytes (a gift from G. Tim Bowden, Arizona Cancer Center, Tucson) were cultured in Dulbecco's modified Eagle's medium (DMEM) supplemented with 5% FBS; and PE murine keratinocytes (a gift from Stuart H. Yuspa, National Cancer Institute, Bethesda, Md.) were cultured in Eagle's minimum essential medium (EMEM) with 8% FBS, treated with Chelex resin (Bio-Rad) to remove Ca^2+.
(§3) Cells (20,000 per well) were grown for 24 h in 96-well plates, then exposed to serial dilutions of sulforaphane for either 24 h (for glutathione determination) or 48 h (for NQO1 determination), and finally lysed in 0.08% digitonin. An aliquot (25 μl) was used for protein analysis. Activity of NQO1 was determined by the Prochaska test (29,30). To measure the intracellular glutathione levels, 25 μl of cell lysate received 50 μl of ice-cold metaphosphoric acid (50 g/liter) in 2 mM EDTA to precipitate cellular protein. After 10 min at 4° C., plates were centrifuged at 1,500 g for 15 min and 50 μl of the resulting supernatant fractions were transferred to a parallel plate. To each of these wells, 50 μl of 200 mM sodium phosphate buffer, pH 7.5, containing 10 mM EDTA, were added and total cellular glutathione was determined by rate measurements in a recycling assay (31,32).

[2] = system: quinone reductase (NQO1); settings: 48 h exposure; for intracellular level of NQO1: serial dilutions
Experimental: as §1, §2, §3

[3] = system: NQO1; experiment: Skin NQO1 specific activity after 311-nm UV radiation; assay type: in vivo, SKH-1 hairless mice; settings: three topical doses at 24-h intervals, 700 mJ/cm^2 311-nm UV 24 h after last dose
Experimental: (§4) The backs of SKH-1 hairless mice were treated topically with three doses at 24-h intervals of: (i) broccoli sprout extract containing 0.5 μmol of sulforaphane in 50 μl of 80% acetone/20% water (vol/vol) applied to the caudal area, and (ii) solvent applied to the rostral area. The animals received 700 mJ/cm^2 of 311-nm UV radiation 24 h after the last dose and were euthanized 24 h later, and their dorsal skin was harvested. (A) Fresh frozen 9-μm-thick sections of skin were fixed with paraformaldehyde and stained with H&E. (Scale bar 100 μm). (B) Mice were irradiated with a range of doses of UV radiation and euthanized 24 h later. (C) MPO-specific activity was measured in supernatant fractions of total homogenates prepared from liquid nitrogen-frozen and pulverized dorsal skin, and its protein levels were detected by Western blots with anti-MPO antibody (Hycult Biotechnology, Uden, The Netherlands). […] (D and E) MPO-specific (D) and NQO1-specific (E) activities were measured in supernatant fractions of total skin homogenates from mice treated with solvent (black bars), sulforaphane (gray bars), and broccoli sprout extract (white bars) and are expressed as ratios of each treatment to the non-irradiated control. Average values±SD are shown. Eight animals were used in the control group, and four in each of the treatment groups.

[4] = system: glutathione; settings: topical, extract containing 1 μmol sulforaphane, skin 24 h later, vs vehicle
From the text: (§5) The phase 2 response was next evaluated in vivo in […] hairless mice. Female SKH-1 hairless mice (4 weeks old) were obtained from Charles River Breeding Laboratories (Wilmington, Mass.) and were acclimatized in our animal facility for 2 weeks before the start of the experiment. The animals were kept on a 12-h light/12-h dark cycle, 35% humidity, and given free access to water and pelleted AIN 76A diet (Harlan TekLad, free of inducers). All animal experiments were in compliance with the National Institutes of Health Guidelines and were approved by the Johns Hopkins University Animal Care and Use Committee.
(§6) Seven-week-old SKH-1 hairless mice (5 per group) were treated topically on their backs with either 100 μl of a standardized myrosinase-hydrolyzed broccoli sprout extract containing 1 μmol of sulforaphane, or vehicle (100 μl of 80% acetone:20% water, v/v). The animals were euthanized 24 h later and their dorsal skins were dissected using a rectangular template (2.5×5 cm) and frozen in liquid N2. Skin samples were pulverized in liquid N2 and 100 mg of the resulting powder was homogenized in 1 ml of either 0.25 M sucrose buffered with 10 mM Tris-HCl, pH 7.4, for analysis of NQO1 enzymatic activity and protein content, or ice-cold metaphosphoric acid (50 g/liter) in 2 mM EDTA for analysis of glutathione. […]

[5] = system: NQO1; settings: topical, extract containing 1 μmol sulforaphane, skin 24 h later, vs vehicle
From the text: as §5, §6

[6] = system: RAW 264.7 cells; experiment: cells; settings: Mus musculus, RAW264.7, 24 h, read-out: IC50, inhibition of NO formation
Experimental: (§7) Cells were treated with various concentrations of sulforaphane and either IFNγ (10 ng/ml) or lipopolysaccharide (LPS; 3 ng/ml) for 24 h. NO in the medium was measured as nitrite by the Griess reaction (A), and iNOS induction was detected by Northern (B) and Western (C) blotting.

[7] = system: myeloperoxidase (MPO); experiment: Skin myeloperoxidase (MPO) after 311-nm UV radiation; assay type: in vivo, SKH-1 hairless mice; settings: three topical doses at 24-h intervals, 700 mJ/cm^2 311-nm UV 24 h after last dose
Experimental: as §4

[8] = system: PE murine keratinocytes; settings: 5 μM for 24 h, UVA 10 J/cm^2, PE cells
Experimental: Cells (50,000 per well) were plated on 24-well plates, treated with 5 μM sulforaphane for 24 h, washed with DPBS, and then exposed to UVA (10 J/cm^2). Reactive oxygen intermediates generated by the UV radiation were quantified by the fluorescent probe 2′,7′-dichlorodinitrofluorescein and fluorescence intensity was measured (expressed as a ratio of exposed to non-exposed cells).
PE cells (50,000 per well) were seeded into 24-well plates and grown for 48 h. The cells were then exposed to 1 μM or 5 μM sulforaphane for 24 h. On the day of the experiments, after removing the medium, the cells were incubated with 100 μM 2′,7′-dichlorodinitrofluorescein diacetate in 500 μl of fresh medium (Molecular Probes, Eugene, Oreg.) for 30 min. The medium containing the fluorescent probe was then removed, the cells were washed with DPBS, and exposed to UVA radiation (10 J/cm^2). Control cells were kept in the dark. Cells were detached with trypsin, suspended in 2.0 ml of DPBS, and the intensity of fluorescence was determined in cell suspensions at 520 nm with an excitation of 485 nm in 2-ml cuvettes in a Perkin-Elmer LS50 spectrofluorimeter.

[9] = system: iNOS; settings: IFN-γ 10 ng/ml or LPS 3 ng/ml overnight
Experimental: as §7
RAW 264.7 macrophages (2×10^6 cells/well) were incubated with sulforaphane and either 10 ng/ml of IFN-γ or 3 ng/ml of LPS overnight. For Northern blots, total RNA was isolated with Trizol reagent (Invitrogen) and prepared for blotting as previously described (33). Probes for iNOS and GAPDH were radiolabeled with […] with random primers. For Western blots, total cell lysates were subjected to SDS/PAGE, transferred to a membrane, and probed with iNOS and β-actin antibodies (Santa Cruz Biotechnology).

[10] = system: HaCaT cells; settings: HaCaT cells at concentrations giving >10-fold NQO1 induction
[11] = in vivo; cited from earlier work
[12] = system: UVB-pretreated high-risk mice; experiment: UVB radiation-induced skin carcinogenesis in high-risk mice, dietary administration; assay type: in vivo; settings: for reduction of tumor multiplicity (number of tumors per mouse): diet; for reduction of tumor multiplicity (number of tumors per mouse) / reduction of tumor incidence (percent animals with tumors): 13 weeks; for number of tumors per mouse: control 4.3
Experimental: Seeds of broccoli (Brassica oleracea italica, cv. DeCicco) were used to grow sprouts as described in Example 1. Growth was arrested after 3 days by plunging sprouts into boiling water and allowed to boil for ˜30 min. This treatment inactivated the endogenous sprout myrosinase and extracted the glucosinolates. […] The powder was mixed with the mouse diet (powdered AIN 76A) to give the equivalent of 10 μmol (low dose) or 50 μmol (high dose) of glucoraphanin per 3 grams of diet.
Body weights and formation of tumors larger than 1 mm in diameter were determined weekly.
UVB radiation was provided by a bank of UV lamps (FS72T12-UVB-HO, National Biological Corporation, Twinsburg, Ohio) emitting UVB (280-320 nm, 65% of total energy) and UVA (320-375 nm, 35% of total energy). The radiant dose of UVB was quantified with a UVB Daavlin Flex Control Integrating Dosimeter and further calibrated with an IL-1400 radiometer (International Light, Newburyport, Mass.).
The animals were irradiated for 20 weeks on Tuesdays and Fridays with a radiant exposure of 30 mJ/cm^2/session. One week later, the mice were divided into three groups: 30 animals in each treatment group and 30 animals in the control group. The mice in the two treatment groups received a diet into which was incorporated a freeze-dried broccoli sprout extract powder. The diet of the low dose treatment group included a freeze-dried broccoli sprout extract powder equivalent to 10 μmol/day glucoraphanin, while the diet of the high dose treatment group included a freeze-dried broccoli sprout extract powder equivalent to 50 μmol/day glucoraphanin. […] The mice were fed this diet for 13 weeks.
Tumor volumes were determined by measuring the height, length, and width of each mass that was larger than 1 mm in diameter. The average of the three measurements was used as the diameter and the volume was calculated (v=4πr^3/3). All mice were euthanized on the same day and the size and multiplicity of tumors was determined. Dorsal skins were dissected using a rectangular template (2.5×5 cm) to include the entire treated areas of the mice. Skins were stapled to cardboard, photographed, and fixed in ice-cold 10% phosphate-buffered formalin at 4° C. for 24 h.
Tumor incidence was evaluated using the Kaplan-Meier survival analysis followed by both a stratified log-rank test and a Wilcoxon test, for equality of survivor functions. Tumor multiplicity was evaluated by ANOVA and comparisons were made on all treatments and on individual, paired treatments (t-test). Tumor volume was evaluated by ANOVA with treatment time as a nested variable. These calculations were performed using Stata 7.0 (College Station, Tex.). Other statistics were calculated using Excel.

[13] = mice, dietary; cited from earlier work
[14] = Plasma levels of sulforaphane and its metabolites after chronic dietary treatment; assay type: in vivo, mice
From the text: These levels are adequate to expect biological effects.

In the case of `C[S+]([O-])CCCCN=C=S` (stereo not shown) [sulforaphane, 4-methylsulfinylbutyl isothiocyanate], the “intracellular level of glutathione” value ([1]; HaCaT human keratinocytes) is reported as “increased in a dose-dependent manner”, the “intracellular level of glutathione” value ([1]; PE murine keratinocytes) is reported as “increased in a dose-dependent manner” and the “magnitude of NQO1 induction” value ([2]; HaCaT cells) is reported as > 10 fold. For the same compound, the “intracellular level of NQO1” value ([2]; HaCaT human keratinocytes) was “increased in a dose-dependent manner”, the “intracellular level of NQO1” value ([2]; PE murine keratinocytes) was “increased in a dose-dependent manner” and the “NQO1 specific activity in skin homogenates” value [3] was “increased the specific activities; also recorded: restoration of the UV radiation decreased NQO1 levels”. For the same compound, the “elevation of the total glutathione levels” value [4] was ~15%, the “induction of NQO1” value [5] was ~50% and the IC50 [6] was 300 nM. For the same compound, the “UV radiation-induced MPO protein and enzyme activity” value [7] was “suppressed the increases of MPO protein and enzyme activity levels; also recorded: equivalent protection against the UV radiation-induced MPO elevation”, the “reduction in reactive oxygen intermediates generated by the UV radiation” value [8] was 50% and the “synthesis of iNOS mRNA” value ([9]; Northern blot) was “inhibited”. The “synthesis of iNOS protein” value ([9]; Western blot) was “inhibited”, the cytotoxicity [10] was “without any apparent evidence of cytotoxicity” and the tissue half-life [11] was 1 to 2 h. The “reduction of tumor multiplicity (number of tumors per mouse)” value (“reduction … (number of tumors per mouse)” below) ([12]; high dose 50 μmol/day) was 72% and the “reduction … (number of tumors per mouse)” value ([12]; low dose 10 μmol/day) was 47%.
In the case of `C[S+]([O-])CCCC/C(=N\OS(=O)(=O)O)S[C@@H]1O[C@H](CO)[C@@H](O)[C@H](O)[C@H]1O` (stereo partly shown) [glucoraphanin], the “fraction converted to sulforaphane upon ingestion” value [13] is given as “about 10%”, the “plasma levels of sulforaphane and its metabolites” value ([14]; high dose 50 μmol/day glucoraphanin) is given as 2500 nM and the “plasma levels of sulforaphane and its metabolites” value ([14]; low dose 10 μmol/day glucoraphanin) is given as 2200 nM. The “inhibition in the total tumor volume per mouse” value ([12]; high dose 50 μmol/day) was 70%, the “reduction of tumor incidence (percent animals with tumors)” value ([12]; high dose 50 μmol/day glucoraphanin as freeze-dried broccoli sprout extract powder in diet) was 35% and the “reduction … (number of tumors per mouse)” value ([12]; high dose 50 μmol/day) was 72%. The “number of tumors per mouse” value ([12]; high dose 50 μmol/day) was 1.2, the “inhibition in the total tumor volume per mouse” value ([12]; low dose 10 μmol/day) was 70% and the “reduction of tumor incidence (percent animals with tumors)” value ([12]; low dose 10 μmol/day glucoraphanin as freeze-dried broccoli sprout extract powder in diet) was 25%. The “reduction … (number of tumors per mouse)” value ([12]; low dose 10 μmol/day) was 47% and the “number of tumors per mouse” value ([12]; low dose 10 μmol/day) was 2.3.
